Experimental data published in patent US20220401564A1 (DANA-FARBER CANCER INSTITUTE, INC., priority 2019, published 2022).

Key:
[1] = target: T1, VHL (Homo sapiens, UniProt P40337); assay: Cellular VHL engagement assay (BRD4BD2-GFP / mCherry reporter cells); format: cell-based; conditions: with 250 nM AT1, 5 h
T1 construct: Cells stably expressing the BRD4BD2-GFP with mCherry reporter (40) were seeded; endogenous in cells
Procedure: Cells stably expressing the BRD4BD2-GFP with mCherry reporter (40) were seeded at 30-50% confluency in 384-well plates with 50 μL per well of FluoroBrite™ DMEM media (Thermo Fisher Scientific, A18967) supplemented with 10% FBS a day before compound treatment. Compounds and 250 nM AT1((2S,4R)-1-(2R)-2-Acetamido-3-[[6-[2-[(6S)-4-(4-chlorophenyl)-2,3,9-trimethyl-6H-thieno[3,2-f][1,2,4]triazolo[4,3-a][1,4]diazepin-6-yl]acetamido]hexyl]thio]-3-methylbutanoyl]-4-hydroxy-N-[4-(4-methylthiazol-5-yl)benzyl)pyrrolidinine-2-carboxamide) were dispensed using a D300e Digital Dispenser (HP), normalized to 0.5% DMSO, and incubated with the cells for 5 h. The assay plate was imaged immediately using an Acumen® High Content Imager (TTP Labtech) with 488 nm and 561 nm lasers in a […] grid per well format. The resulting images were analyzed using CellProfiler™.
A series of image analysis steps (an ‘image analysis pipeline’) was constructed. First, the red and green channels were aligned and cropped to target the middle of each well (to avoid analysis of the heavily clumped cells at the edges). A background illumination function was calculated for both red and green channels of each well individually and subtracted to correct for illumination variations across the 384-well plate from various sources of error. An additional step was then applied to the green channel to suppress the analysis of large auto fluorescent artifacts and enhance the analysis of cell specific fluorescence by way of selecting for objects under a given size (30 A.U.) and with a given shape (speckles). mCherry-positive cells were then identified in the red channel by filtering for objects 8-60 pixels in diameter and by using intensity to distinguish between clumped objects. The green channel was then segmented into GFP positive and negative areas and objects were labeled as GFP positive if at least 40% of it overlapped with a GFP positive area. The fraction of GFP-positive cells/mCherry-positive cells in each well was then calculated, and the green and red images were rescaled for visualization.

[2] = test system: other identified HDAC proteins; assay: Change in cellular protein abundance (TMT proteomics) in Kelly cells; format: cell-based, human; conditions: 1 μM, 5 hours, vs DMSO
Procedure: (§1) Lysis buffer (8 M Urea, 50 mM NaCl, 50 mM 4-(2hydroxyethyl)-1-piperazineethanesulfonic acid (EPPS) pH 8.5, protease and phosphatase inhibitors from Roche®) were added to the cell pellets and homogenized by 20 passes through a 21 gauge (1.25 in. long) needle to achieve a cell lysate with a protein concentration between 1-4 mg mL-1. A micro-BCA assay (Pierce™) was used to determine the final protein concentration in the cell lysate. 200 μg of protein for each sample were reduced and alkylated as described in Donovan et al., Elife 7:e38430 (2018).
Proteins were precipitated using methanol/chloroform. Four volumes of methanol were added to the cell lysate, followed by one volume of chloroform, and finally three volumes of water. The mixture was vortexed and centrifuged to separate the chloroform phase from the aqueous phase. […]
Anhydrous ACN was added to each peptide sample to a final concentration of 30% v/v, and labeling was induced with the addition of TMT reagent to each sample at a ratio of 1:4 peptide:TMT label. […] The sample channels were combined at a 1:1:1:1:1:1:1:1:1:1:1 ratio, desalted using Cis solid phase extraction cartridges (Waters®) and analyzed by LC-MS for channel ratio comparison. Samples were then combined using the adjusted volumes determined in the channel ratio analysis and dried down in a speed vacuum. […]

[3] = target: T2, HDAC3 (Homo sapiens, UniProt O15379); assay: as above; format: cell-based; design: relative change in relative protein abundance with treatment of Kelly cells; endogenous in cells; host or cells: Kelly cells
Procedure: as §1
Target sequence in this assay (O15379 whole entry): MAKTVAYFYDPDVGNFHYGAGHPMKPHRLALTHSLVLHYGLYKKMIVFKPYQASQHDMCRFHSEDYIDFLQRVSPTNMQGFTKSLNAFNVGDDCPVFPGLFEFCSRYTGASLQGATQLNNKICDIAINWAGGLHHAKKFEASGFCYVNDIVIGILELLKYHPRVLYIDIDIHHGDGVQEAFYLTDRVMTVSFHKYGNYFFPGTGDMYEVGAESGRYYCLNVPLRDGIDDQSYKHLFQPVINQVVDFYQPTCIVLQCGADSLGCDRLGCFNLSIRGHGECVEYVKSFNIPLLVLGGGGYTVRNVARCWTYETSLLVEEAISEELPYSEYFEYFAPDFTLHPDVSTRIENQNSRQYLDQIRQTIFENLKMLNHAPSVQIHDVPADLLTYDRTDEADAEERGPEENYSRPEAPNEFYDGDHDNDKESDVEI
Proteins were precipitated using methanol/chloroform. Four volumes of methanol were added to the cell lysate, followed by one volume of chloroform, and finally three volumes of water. The mixture was vortexed and centrifuged to separate the chloroform phase from the aqueous phase. The precipitated protein was washed with three volumes of methanol, centrifuged and the resulting washed precipitated protein was allowed to air dry. The precipitated protein was resuspended in 4 M Urea, 50 mM HEPES pH 7.4, followed by dilution to 1 M urea with the addition of 200 mM EPPS, pH 8. Proteins were first digested with LysC (1:50; enzyme:protein) for 12 hours at room temperature. The LysC digestion was diluted to 0.5 M Urea with 200 mM EPPS pH 8 followed by digestion with trypsin (1:50; enzyme:protein) for 6 hours at 37° C. Tandem mass tag (TMT) reagents (Thermo Fisher Scientific) were dissolved in anhydrous acetonitrile (ACN) according to manufacturer's instructions.
Anhydrous ACN was added to each peptide sample to a final concentration of 30% v/v, and labeling was induced with the addition of TMT reagent to each sample at a ratio of 1:4 peptide:TMT label. The 10-plex labeling reactions were performed for 1.5 hours at room temperature and the reaction quenched by the addition of hydroxylamine to a final concentration of 0.3% for 15 minutes at room temperature. The sample channels were combined at a 1:1:1:1:1:1:1:1:1:1:1 ratio, desalted using Cis solid phase extraction cartridges (Waters®) and analyzed by LC-MS for channel ratio comparison. Samples were then combined using the adjusted volumes determined in the channel ratio analysis and dried down in a speed vacuum. The combined sample was then resuspended in 1% formic acid, and acidified (pH 2-3) before being subjected to desalting with C18 SPE (Sep-Pak®, Waters®). Samples were then offline fractionated into 96 fractions by high pH reverse-phase HPLC (Agilent® LC1260) through an aeris peptide xb-c18 column (Phenomenex®) with mobile phase A containing 5% acetonitrile and 10 mM NH4HCO3 in LC-MS grade H2O, and mobile phase B containing 90% acetonitrile and 10 mM NH4HCO3 in LC-MS grade H2O (both pH 8.0). The 96 resulting fractions were then pooled in a non-continuous manner into 24 fractions and these fractions were used for subsequent mass spectrometry analysis.
Data were collected using an Orbitrap Fusion™ Lumos™ mass spectrometer (Thermo Fisher Scientific, San Jose, Calif., USA) coupled with a Proxeon EASY-nLC™ 1200 LC pump (Thermo Fisher Scientific). Peptides were separated on an EasySpray™ ES803 75 μm inner diameter microcapillary column (ThermoFisher Scientific).
Each analysis used an MS3-based TMT method as described previously. The data were acquired using a mass range of m z 340-1350, resolution 120,000, automatic gain control (AGC) target 1×10^6, maximum injection time 100 ms, dynamic exclusion of 120 seconds for the peptide measurements in the Orbitrap Fusion™ Lumos™ mass spectrometer. Data dependent MS2 spectra were acquired in the ion trap with a normalized collision energy (NCE) set at 55%, AGC target set to 1.5×10^5 and a maximum injection time of 150 ms. […]

[4] = target: T3, HDAC6 (Homo sapiens, UniProt Q9UBN7); assay: HDAC enzymatic assay (Reaction Biology), fluorogenic substrate; format: biochemical; design: purchased Reaction Biology
T3 sequence (Q9UBN7 1-1215): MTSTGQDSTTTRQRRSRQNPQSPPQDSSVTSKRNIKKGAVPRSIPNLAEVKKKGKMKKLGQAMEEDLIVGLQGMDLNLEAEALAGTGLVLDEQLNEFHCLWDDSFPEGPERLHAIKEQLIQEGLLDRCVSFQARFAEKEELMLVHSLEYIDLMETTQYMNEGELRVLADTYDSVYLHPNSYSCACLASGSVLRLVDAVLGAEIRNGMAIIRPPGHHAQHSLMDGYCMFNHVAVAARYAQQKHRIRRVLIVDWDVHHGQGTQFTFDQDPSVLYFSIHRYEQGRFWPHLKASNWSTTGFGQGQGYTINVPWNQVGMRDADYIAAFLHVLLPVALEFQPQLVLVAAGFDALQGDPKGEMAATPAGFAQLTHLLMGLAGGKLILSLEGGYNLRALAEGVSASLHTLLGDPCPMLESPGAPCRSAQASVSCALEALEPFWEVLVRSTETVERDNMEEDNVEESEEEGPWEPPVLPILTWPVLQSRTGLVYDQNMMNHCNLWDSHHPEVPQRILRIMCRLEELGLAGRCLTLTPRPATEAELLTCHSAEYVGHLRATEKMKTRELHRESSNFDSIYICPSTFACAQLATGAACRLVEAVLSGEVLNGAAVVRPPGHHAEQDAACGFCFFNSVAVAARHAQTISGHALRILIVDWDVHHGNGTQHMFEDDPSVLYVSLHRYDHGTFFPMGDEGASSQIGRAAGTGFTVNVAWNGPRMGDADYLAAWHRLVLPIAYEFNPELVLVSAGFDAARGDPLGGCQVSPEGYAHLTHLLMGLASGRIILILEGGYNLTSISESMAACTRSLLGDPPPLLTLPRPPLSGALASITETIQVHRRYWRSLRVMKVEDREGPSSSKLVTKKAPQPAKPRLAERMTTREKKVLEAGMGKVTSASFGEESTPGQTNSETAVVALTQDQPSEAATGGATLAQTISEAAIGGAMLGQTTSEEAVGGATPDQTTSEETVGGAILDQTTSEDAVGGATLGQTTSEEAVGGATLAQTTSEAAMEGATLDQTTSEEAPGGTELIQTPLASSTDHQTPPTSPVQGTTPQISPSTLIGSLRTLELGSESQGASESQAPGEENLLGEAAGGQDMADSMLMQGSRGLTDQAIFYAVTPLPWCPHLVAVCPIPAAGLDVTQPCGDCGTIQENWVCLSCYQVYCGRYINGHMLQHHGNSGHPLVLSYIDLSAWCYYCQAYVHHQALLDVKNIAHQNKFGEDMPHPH
Procedure: (§2) Compounds 2 and 9 were tested in an enzymatic assay from Reaction Biology® against HDAC isoforms.
(§3) Base Reaction buffer: 50 mM Tris-HCl, pH8.0, 137 mM NaCl, 2.7 mM KCl, and 1 mM MgCl2. Add fresh: 1 mg/ml BSA, 1% DMSO
(§4) Fluorogenic HDAC General Substrate (HDAC1, HDAC2, HDAC3, HDAC6, HDAC10, and HDAC11): 50 μM, Arg-His-Lys-Lys(Ac)-AMC
(§5) 1. Delivered 2X enzyme in wells of reaction plate except in the control wells and added buffer to control wells. 2. Delivered compounds in 100% DMSO into the enzyme mixture by Acoustic technology (Echo550; nanoliter range). Spin down and pre-incubation. 3. Delivered 2X Substrate Mixture (Fluorogenic HDAC Substrate and co-factor if applicable) in all reaction wells to initiate the reaction. Spin and shake. 4. Incubated for 30 min for Class 2A, 1 h for HDAC1, 2, 3, and 6, and 2 h for the rest of HDAC isoforms and SIRTs at 30° C. with seal.
(§6) 5. Added Developer with Trichostatin A (or Nicotinamide for SIRTs) to stop the reaction and to generate fluorescent color. 6. The fluorescence that was generated was detected with excitation (Ex) at […] and emission (Em) at 460 nM by the EnVision Multilabel Plate Reader (PerkinElmer®, Santa Clara, Calif., USA).
(§7) IC50 values were derived from a 10-dose response curve. As shown in Tables 1-2, the addition of a linker and CRBN targeting group altered the isoform selectivity of the SAHA-based degrader compounds.

[5] = target: T2, HDAC3; assay: as above; format: biochemical; design: purchased Reaction Biology
Procedure: as §2, §3, §4, §5, §6, §7
Target sequence in this assay (O15379 whole entry): as the sequence (O15379 whole entry) above
Target sequence in this assay (Q9Y618 395-489 partner limits assumed): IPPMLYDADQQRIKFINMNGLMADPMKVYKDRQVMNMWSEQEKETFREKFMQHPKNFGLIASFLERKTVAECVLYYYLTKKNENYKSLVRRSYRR

[6] = target: T4, HDAC8 (Homo sapiens, UniProt Q9BY41); assay: HDAC enzymatic assay (Reaction Biology), HDAC8 substrate; format: biochemical; design: purchased Reaction Biology
T4 sequence (Q9BY41 1-377): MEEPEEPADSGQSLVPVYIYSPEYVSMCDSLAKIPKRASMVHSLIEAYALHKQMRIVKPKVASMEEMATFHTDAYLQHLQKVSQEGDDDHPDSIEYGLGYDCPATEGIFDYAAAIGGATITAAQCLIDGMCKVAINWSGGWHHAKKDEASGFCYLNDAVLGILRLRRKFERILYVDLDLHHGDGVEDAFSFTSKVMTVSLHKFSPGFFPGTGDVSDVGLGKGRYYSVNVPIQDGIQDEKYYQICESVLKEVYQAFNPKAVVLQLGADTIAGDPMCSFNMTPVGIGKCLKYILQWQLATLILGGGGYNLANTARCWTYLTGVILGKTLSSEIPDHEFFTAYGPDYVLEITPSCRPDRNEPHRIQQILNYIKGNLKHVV
Procedure: as §2, §3
(HDAC8 only substrate: 50 μM, Arg-His-Lys(Ac)-Lys(Ac))-AMC
as §5, §6, §7

[7] = target: T5, HDAC1 (Homo sapiens, UniProt Q13547); assay: HDAC enzymatic assay (Reaction Biology), fluorogenic substrate; format: biochemical
T5 construct: purchased Reaction Biology
T5 sequence (Q13547 whole entry): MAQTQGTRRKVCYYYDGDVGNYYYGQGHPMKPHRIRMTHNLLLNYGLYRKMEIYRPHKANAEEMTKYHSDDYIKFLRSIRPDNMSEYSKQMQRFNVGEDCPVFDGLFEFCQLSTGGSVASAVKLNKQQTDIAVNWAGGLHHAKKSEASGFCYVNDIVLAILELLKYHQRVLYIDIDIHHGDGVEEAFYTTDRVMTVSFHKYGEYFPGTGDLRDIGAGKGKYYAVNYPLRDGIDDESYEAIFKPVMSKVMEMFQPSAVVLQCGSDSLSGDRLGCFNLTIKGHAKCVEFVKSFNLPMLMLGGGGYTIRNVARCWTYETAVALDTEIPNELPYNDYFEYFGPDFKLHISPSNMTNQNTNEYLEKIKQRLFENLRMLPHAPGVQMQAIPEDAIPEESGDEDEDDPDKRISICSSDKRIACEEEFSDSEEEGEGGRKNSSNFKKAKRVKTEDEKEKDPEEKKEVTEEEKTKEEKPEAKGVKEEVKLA
Procedure: as §2, §3, §4, §5, §6, §7

[8] = target: T6, HDAC2 (Homo sapiens, UniProt Q92769); assay: as above; format: biochemical
T6 construct: purchased Reaction Biology
T6 sequence (Q92769 whole entry): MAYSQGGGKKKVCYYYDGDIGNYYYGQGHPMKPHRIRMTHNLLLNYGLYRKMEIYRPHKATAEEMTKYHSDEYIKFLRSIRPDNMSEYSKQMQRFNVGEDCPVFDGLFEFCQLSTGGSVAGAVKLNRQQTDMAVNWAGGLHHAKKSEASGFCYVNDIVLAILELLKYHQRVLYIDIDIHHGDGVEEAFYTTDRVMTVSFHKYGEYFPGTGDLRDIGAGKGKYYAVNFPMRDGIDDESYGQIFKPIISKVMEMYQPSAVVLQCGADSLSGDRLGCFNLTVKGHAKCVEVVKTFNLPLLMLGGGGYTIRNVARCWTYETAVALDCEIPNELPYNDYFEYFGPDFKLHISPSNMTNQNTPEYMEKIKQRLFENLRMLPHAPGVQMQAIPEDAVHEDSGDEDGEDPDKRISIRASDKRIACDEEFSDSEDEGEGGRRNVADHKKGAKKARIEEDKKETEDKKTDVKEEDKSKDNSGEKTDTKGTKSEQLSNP
Procedure: as §2, §3, §4, §5, §6, §7

T1 sequence (P40337 whole entry, species assumed): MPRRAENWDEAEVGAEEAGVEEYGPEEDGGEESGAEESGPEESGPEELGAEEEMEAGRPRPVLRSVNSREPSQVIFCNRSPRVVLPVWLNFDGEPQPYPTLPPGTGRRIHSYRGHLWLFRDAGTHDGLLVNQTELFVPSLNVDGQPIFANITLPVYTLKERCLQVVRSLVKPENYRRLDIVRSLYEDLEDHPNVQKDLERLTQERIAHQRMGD

Compound	IC50 [1] [µM]	cellular protein levels of the other identified HDAC proteins (heat map FIG. 2) [2]	cellular HDAC3 protein levels, change in relative protein abundance (heat map FIG. 2) ([3]; 1 μM, 5 hours, vs DMSO)	HDAC3 protein levels, relative protein abundance compared to DMSO control ([3]; scatter plots FIG. 1 and FIG. 3)	inhibition of HDAC6 activity in vitro (in words) [4]	inhibition of HDAC3 deacetylase activity in vitro (in words) [5]	IC50 ([5]; 10-dose response curve, read-out: Compound IC50 (M), HDAC3) [M]	inhibition of HDAC8 deacetylase activity in vitro (in words) [6]	inhibition of HDAC1 deacetylase activity in vitro (in words) [7]	IC50 ([7]; 10-dose response curve, read-out: Compound IC50 (M), HDAC1) [M]	inhibition of HDAC2 deacetylase activity in vitro (in words) [8]	IC50 ([8]; 10-dose response curve, read-out: Compound IC50 (M), HDAC2) [M]
Cc1ncsc1-c1ccc([C@H](C)NC(=O)[C@@H]2C[C@@H](O)CN2C(=O)[C@@H](NC(=O)CCOCCN(CCc2c[nH]c3ccccc23)Cc2ccc(/C=C/C(=O)NO)cc2)C(C)(C)C)cc1 [Compound 1, (2S,4R)-1-((S)-2-(3-(2-((2-(1H-indol-3-yl)ethyl)(4-((E)-3-(hydroxyamino)-3-oxoprop-1-en-1-yl)benzyl)amino)ethoxy)propanamido)-3,3-dimethylbutanoyl)-4-hydroxy-N—((S)-1-(4-(4-methylthiazol-5-yl)phenyl)ethyl)pyrrolidine-2-carboxamide]	16.9	did not affect	down-regulation	significant and selective reduction	–	–	–	–	–	–	–	–
Cc1ncsc1-c1ccc([C@H](C)NC(=O)[C@@H]2C[C@@H](O)CN2C(=O)[C@@H](NC(=O)CCOCCN(CCc2c[nH]c3ccccc23)Cc2ccc(/C=C/C(=O)Nc3ccccc3N)cc2)C(C)(C)C)cc1 [Compound 9, (2S,4R)-1-((S)-2-(3-(2-((2-(1H-indol-3-yl)ethyl)(4-((E)-3-((2-aminophenyl)amino)-3-oxoprop-1-en-1-yl)benzyl)amino)ethoxy)propanamido)-3,3-dimethylbutanoyl)-4-hydroxy-N—((S)-1-(4-(4-methylthiazol-5-yl)phenyl)ethyl)pyrrolidine-2-carboxamide]	298	–	–	–	did not inhibit	moderate inhibition	1.12e-05	did not inhibit	moderate inhibition	9.5e-06	moderate inhibition	1.15e-05
